Data published in article PMC5218480 (PLoS ONE, 2017).

Test system: MV-4-11 cells
Experiment: Gene expression microarray analysis (Affymetrix PrimeView) and GSEA
Type: cell-based, human
Design: RFU PODN (11730768_x_at) / Fold change /veh PODN (11730768_x_at) / RFU LINC00158 (11744669_a_at) / Fold change /veh LINC00158 (11744669_a_at) / RFU DUSP10 (11751237_a_at) / Fold change /veh DUSP10 (11751237_a_at) / RFU ID3 (11757404_x_at) / Fold change /veh ID3 (11757404_x_at) / RFU PLEKHG5 (11737974_s_at) / Fold change /veh PLEKHG5 (11737974_s_at) / RFU LRRC4B (11730491_at) / Fold change /veh LRRC4B (11730491_at) / RFU GIMAP4 (11747438_a_at) / Fold change /veh GIMAP4 (11747438_a_at) / RFU KRT8 (11758183_x_at) / Fold change /veh KRT8 (11758183_x_at) / RFU CNN1 (11734310_a_at) / Fold change /veh CNN1 (11734310_a_at) / RFU VPS37D (11726825_at) / Fold change /veh VPS37D (11726825_at) / RFU C10orf10 (11716522_x_at) / Fold change /veh C10orf10 (11716522_x_at) / RFU KIR2DL2 /// KIR2DL4 /// KIR2DL5A /// KIR2DL5B /// KIR2DS1 /// KIR2DS2 /// KIR2DS3 /// KIR2DS4 /// KIR3DL3 /// KIR3DL3 /// KIR3DS1 (11738374_at) / Fold change /veh KIR2DL2 /// KIR2DL4 /// KIR2DL5A /// KIR2DL5B /// KIR2DS1 /// KIR2DS2 /// KIR2DS3 /// KIR2DS4 /// KIR3DL3 /// KIR3DL3 /// KIR3DS1 (11738374_at) / RFU C1QL1 (11718748_at) / Fold change /veh C1QL1 (11718748_at) / RFU TMPRSS4 (11747572_a_at) / Fold change /veh TMPRSS4 (11747572_a_at) / RFU HAMP (11756126_x_at) / Fold change /veh HAMP (11756126_x_at) / RFU RNFT2 (11725882_a_at) / Fold change /veh RNFT2 (11725882_a_at) / RFU NR4A2 (11747474_a_at) / Fold change /veh NR4A2 (11747474_a_at) / RFU ABCC12 (11746883_a_at) / Fold change /veh ABCC12 (11746883_a_at) / RFU TMEM136 (11760407_x_at) / Fold change /veh TMEM136 (11760407_x_at) / RFU CLDN22 /// WWC2 (11732394_at) / Fold change /veh CLDN22 /// WWC2 (11732394_at) / RFU HLA-DPB1 (11760878_x_at) / Fold change /veh HLA-DPB1 (11760878_x_at) / RFU SPINT1 (11716480_a_at) / Fold change /veh SPINT1 (11716480_a_at) / RFU GAP43 (11754022_s_at) / Fold change /veh GAP43 (11754022_s_at) / RFU A4GNT (11735810_at) / Fold change /veh A4GNT (11735810_at) / RFU PRB3 (11715151_x_at) / Fold change /veh PRB3 (11715151_x_at) / RFU TUBB4B (11761932_at) / Fold change /veh TUBB4B (11761932_at) / RFU CAPN14 (11732068_a_at) / Fold change /veh CAPN14 (11732068_a_at) / RFU TMCC2 (11721928_a_at) / Fold change /veh TMCC2 (11721928_a_at) / RFU IRGQ (11745062_a_at) / Fold change /veh IRGQ (11745062_a_at) / RFU FAM174B (11720279_a_at) / Fold change /veh FAM174B (11720279_a_at) / RFU TMPRSS4 (11748680_a_at) / Fold change /veh TMPRSS4 (11748680_a_at) / RFU FAM212B (11763350_a_at) / Fold change /veh FAM212B (11763350_a_at) / RFU PLEKHG5 (11743358_a_at) / Fold change /veh PLEKHG5 (11743358_a_at) / RFU ZSCAN30 (11745921_a_at) / Fold change /veh ZSCAN30 (11745921_a_at) / RFU CMKLR1 (11741424_a_at) / Fold change /veh CMKLR1 (11741424_a_at) / RFU LOC101060620 /// MAPK8IP1 (11723275_at) / Fold change /veh LOC101060620 /// MAPK8IP1 (11723275_at) / RFU SPTSSB (11747773_x_at) / Fold change /veh SPTSSB (11747773_x_at) / RFU PRSS12 (11739890_at) / Fold change /veh PRSS12 (11739890_at) / RFU BIN1 (11741810_x_at) / Fold change /veh BIN1 (11741810_x_at) / RFU WNT11 (11732464_a_at) / Fold change /veh WNT11 (11732464_a_at) / RFU C10orf10 (11716521_a_at) / Fold change /veh C10orf10 (11716521_a_at) / RFU C5orf56 (11738089_at) / Fold change /veh C5orf56 (11738089_at) / RFU CYB561 (11721691_x_at) / Fold change /veh CYB561 (11721691_x_at) / RFU ANKRD19P (11752326_a_at) / Fold change /veh ANKRD19P (11752326_a_at) / RFU OR2T12 /// OR2T33 /// OR2T8 (11738714_s_at) / Fold change /veh OR2T12 /// OR2T33 /// OR2T8 (11738714_s_at) / RFU VCAN (11748164_a_at) / Fold change /veh VCAN (11748164_a_at) / RFU JSRP1 (11732532_at) / Fold change /veh JSRP1 (11732532_at) / RFU KRTAP10-11 (11738290_x_at) / Fold change /veh KRTAP10-11 (11738290_x_at) / RFU MYO3A (11730013_a_at) / Fold change /veh MYO3A (11730013_a_at) / RFU EBF3 (11725865_a_at) / Fold change /veh EBF3 (11725865_a_at) / RFU CAMK2N1 (11719241_x_at) / Fold change /veh CAMK2N1 (11719241_x_at) / RFU C5orf56 (11738088_a_at) / Fold change /veh C5orf56 (11738088_a_at) / RFU OLFML3 (11715873_a_at) / Fold change /veh OLFML3 (11715873_a_at) / RFU LOC100653217 /// NTM (11731650_a_at) / Fold change /veh LOC100653217 /// NTM (11731650_a_at) / RFU MAPK11 (11762145_a_at) / Fold change /veh MAPK11 (11762145_a_at) / RFU FIZ1 (11724087_x_at) / Fold change /veh FIZ1 (11724087_x_at) / RFU OASL (11726364_x_at) / Fold change /veh OASL (11726364_x_at) / RFU SOX15 (11748057_x_at) / Fold change /veh SOX15 (11748057_x_at) / RFU CD79A (11719716_a_at) / Fold change /veh CD79A (11719716_a_at) / RFU HIST1H1D (11736915_at) / Fold change /veh HIST1H1D (11736915_at) / RFU CASKIN2 (11723855_a_at) / Fold change /veh CASKIN2 (11723855_a_at) / RFU LOC730098 (11760151_x_at) / Fold change /veh LOC730098 (11760151_x_at) / RFU OR4N2 (11742367_at) / Fold change /veh OR4N2 (11742367_at) / RFU PRRT2 (11749266_a_at) / Fold change /veh PRRT2 (11749266_a_at) / RFU SNX32 (11753110_a_at) / Fold change /veh SNX32 (11753110_a_at) / RFU CDHR5 (11726645_a_at) / Fold change /veh CDHR5 (11726645_a_at) / RFU RCAN1 (11760418_a_at) / Fold change /veh RCAN1 (11760418_a_at) / RFU FAM167A (11723789_a_at) / Fold change /veh FAM167A (11723789_a_at) / RFU FAM26E (11764081_at) / Fold change /veh FAM26E (11764081_at) / RFU ISYNA1 (11749810_s_at) / Fold change /veh ISYNA1 (11749810_s_at) / RFU ACY1 (11761880_at) / Fold change /veh ACY1 (11761880_at) / RFU 11764098_at / Fold change /veh 11764098_at / RFU SAMD14 (11745864_x_at) / Fold change /veh SAMD14 (11745864_x_at) / RFU NPB (11741838_a_at) / Fold change /veh NPB (11741838_a_at) / RFU TMPRSS6 (11731388_a_at) / Fold change /veh TMPRSS6 (11731388_a_at) / RFU KRTAP10-2 (11738614_at) / Fold change /veh KRTAP10-2 (11738614_at) / RFU ARHGAP8 /// PRR5-ARHGAP8 (11727945_x_at) / Fold change /veh ARHGAP8 /// PRR5-ARHGAP8 (11727945_x_at) / RFU KRTAP5-7 /// NADSYN1 (11734609_at) / Fold change /veh KRTAP5-7 /// NADSYN1 (11734609_at) / RFU RASL12 (11751679_a_at) / Fold change /veh RASL12 (11751679_a_at) / RFU CDKN2B (11736163_a_at) / Fold change /veh CDKN2B (11736163_a_at) / RFU PRF1 (11729649_at) / Fold change /veh PRF1 (11729649_at) / RFU, ZNF638 /// ZNF638-IT1 / Fold change vs veh, ZNF638 /// ZNF638-IT1 / RFU, PANK3 / Fold change vs veh, PANK3 / RFU, SH3YL1 / Fold change vs veh, SH3YL1 / RFU, ZEB2 / Fold change vs veh, ZEB2 / RFU, NRIP1 / Fold change vs veh, NRIP1 / RFU, PTTG1IP / Fold change vs veh, PTTG1IP / RFU, CAPN2 / Fold change vs veh, CAPN2 / RFU, MED14 / Fold change vs veh, MED14 / RFU, SNORA58 / Fold change vs veh, SNORA58 / RFU, C1orf63 / Fold change vs veh, C1orf63 / RFU, LRRFIP1 / Fold change vs veh, LRRFIP1 / RFU, NDUFAF7 / Fold change vs veh, NDUFAF7 / RFU, SLC12A2 / Fold change vs veh, SLC12A2 / RFU, IBTK / Fold change vs veh, IBTK / RFU, ESF1 / Fold change vs veh, ESF1 / Fold change vs veh, TMEM50B / RFU, TAOK1 / Fold change vs veh, TAOK1 / RFU, ACBD3 / Fold change vs veh, ACBD3 / RFU, TMA16 / Fold change vs veh, TMA16 / RFU, RWDD3 / Fold change vs veh, RWDD3 / RFU, BCAT1 / Fold change vs veh, BCAT1 / RFU, EDEM3 / Fold change vs veh, EDEM3 / RFU, TMEM33 / Fold change vs veh, TMEM33 / RFU, WDR75 / Fold change vs veh, WDR75 / RFU, AHCTF1 / Fold change vs veh, AHCTF1 / RFU, TFRC / Fold change vs veh, TFRC / RFU, ZDHHC17 / Fold change vs veh, ZDHHC17 / RFU, NOM1 / Fold change vs veh, NOM1 / RFU, ARL8B / Fold change vs veh, ARL8B / RFU, ZBTB11 / Fold change vs veh, ZBTB11 / RFU, TAMM41 / Fold change vs veh, TAMM41 / RFU, KIAA1704 /// LOC100996395 / Fold change vs veh, KIAA1704 /// LOC100996395 / RFU, ING1 / Fold change vs veh, ING1 / RFU, TRMT61B / Fold change vs veh, TRMT61B / RFU, FUBP3 / Fold change vs veh, FUBP3 / RFU, TP53 / Fold change vs veh, TP53 / RFU, TNKS2 / Fold change vs veh, TNKS2 / RFU, ZFP14 / Fold change vs veh, ZFP14 / RFU, ACTR2 / Fold change vs veh, ACTR2 / RFU, PPP3R1 / Fold change vs veh, PPP3R1 / RFU, PIK3R1 / Fold change vs veh, PIK3R1 / RFU, HNRNPA1 / Fold change vs veh, HNRNPA1 / RFU, RNF170 / Fold change vs veh, RNF170 / RFU, ZNF28 / Fold change vs veh, ZNF28 / RFU, RNGTT / Fold change vs veh, RNGTT / RFU, OGT / Fold change vs veh, OGT / RFU, BRD1 / Fold change vs veh, BRD1 / RFU, MARS / Fold change vs veh, MARS / RFU, ZNF655 / Fold change vs veh, ZNF655 / RFU, FAHD1 / Fold change vs veh, FAHD1 / RFU, BDP1 / Fold change vs veh, BDP1 / RFU, LRRCC1 / Fold change vs veh, LRRCC1 / RFU, ARID1A / Fold change vs veh, ARID1A / RFU, ZNF146 / Fold change vs veh, ZNF146 / RFU, ZNF330 / Fold change vs veh, ZNF330 / RFU, GPN3 / Fold change vs veh, GPN3 / RFU, C9orf123 / Fold change vs veh, C9orf123 / RFU, N4BP2L2 / Fold change vs veh, N4BP2L2 / RFU, ARFIP1 / Fold change vs veh, ARFIP1 / RFU, FAM179B / Fold change vs veh, FAM179B / RFU, BCL10 / Fold change vs veh, BCL10 / RFU, UHRF1BP1L / Fold change vs veh, UHRF1BP1L / RFU, BET1 / Fold change vs veh, BET1 / RFU, CNOT2 / Fold change vs veh, CNOT2 / RFU, ZNF268 / Fold change vs veh, ZNF268 / Fold change vs veh, ZNF507 / RFU, DGCR2 / Fold change vs veh, DGCR2 / RFU, WDSUB1 / Fold change vs veh, WDSUB1 / Fold change vs veh, HSP90B1 /// MIR3652 / RFU, ADSS / Fold change vs veh, ADSS / RFU, GK / Fold change vs veh, GK / RFU, ZNF148 / Fold change vs veh, ZNF148 / RFU, TAF9 / Fold change vs veh, TAF9 / RFU, SLC1A5 / Fold change vs veh, SLC1A5 / RFU, SLMO2 / Fold change vs veh, SLMO2 / RFU, ABCC4 / Fold change vs veh, ABCC4 / RFU, LOC101060439 /// RAP1B / Fold change vs veh, LOC101060439 /// RAP1B / RFU, RFX7 / Fold change vs veh, RFX7 / RFU, GTPBP10 / Fold change vs veh, GTPBP10 / RFU, CNEP1R1 / Fold change vs veh, CNEP1R1 / RFU, BIVM-ERCC5 /// ERCC5 / Fold change vs veh, BIVM-ERCC5 /// ERCC5 / RFU, ILF3 / Fold change vs veh, ILF3 / RFU 11762660_at / Fold change /veh 11762660_at / RFU VCAN (11757783_s_at) / Fold change /veh VCAN (11757783_s_at) / RFU DDX43 (11728927_at) / Fold change /veh DDX43 (11728927_at) / RFU KRT8 (11758188_x_at) / Fold change /veh KRT8 (11758188_x_at) / RFU NKD1 (11759106_at) / Fold change /veh NKD1 (11759106_at) / RFU SRD5A1 (11742802_a_at) / Fold change /veh SRD5A1 (11742802_a_at) / RFU TPSAB1 /// TPSB2 (11721975_s_at) / Fold change /veh TPSAB1 /// TPSB2 (11721975_s_at) / RFU GSTM3 (11746129_a_at) / Fold change /veh GSTM3 (11746129_a_at) / RFU IL23R (11737362_x_at) / Fold change /veh IL23R (11737362_x_at) / RFU TMEM51 (11727254_a_at) / Fold change /veh TMEM51 (11727254_a_at) / RFU PIWIL2 (11732686_x_at) / Fold change /veh PIWIL2 (11732686_x_at) / RFU ORM1 (11744905_x_at) / Fold change /veh ORM1 (11744905_x_at) / RFU CCDC152 (11743942_at) / Fold change /veh CCDC152 (11743942_at) / RFU ECM1 (11717891_a_at) / Fold change /veh ECM1 (11717891_a_at) / RFU IL23R (11748794_a_at) / Fold change /veh IL23R (11748794_a_at) / RFU TNFAIP8L3 (11732012_x_at) / Fold change /veh TNFAIP8L3 (11732012_x_at) / RFU MBOAT4 (11741988_at) / Fold change /veh MBOAT4 (11741988_at) / RFU 11764193_at / Fold change /veh 11764193_at / RFU TMEM53 (11763286_at) / Fold change /veh TMEM53 (11763286_at) / RFU MAGEB2 (11727129_at) / Fold change /veh MAGEB2 (11727129_at) / RFU TMEM200A (11744735_a_at) / Fold change /veh TMEM200A (11744735_a_at) / RFU CCDC152 (11751479_a_at) / Fold change /veh CCDC152 (11751479_a_at) / RFU FAM211A (11726209_a_at) / Fold change /veh FAM211A (11726209_a_at) / RFU RGS16 (11746705_a_at) / Fold change /veh RGS16 (11746705_a_at) / RFU VCAN (11755009_s_at) / Fold change /veh VCAN (11755009_s_at) / RFU RHOB (11743442_s_at) / Fold change /veh RHOB (11743442_s_at) / RFU RGS16 (11720943_a_at) / Fold change /veh RGS16 (11720943_a_at) / RFU RGS16 (11720944_at) / Fold change /veh RGS16 (11720944_at) / RFU, VPS4B / Fold change vs veh, VPS4B / RFU, CREB1 / Fold change vs veh, CREB1 / RFU, DNAJC13 / Fold change vs veh, DNAJC13 / RFU, GNAQ / Fold change vs veh, GNAQ / RFU, CDK5R1 / Fold change vs veh, CDK5R1 / RFU, ZRANB3 / Fold change vs veh, ZRANB3 / RFU, CUL4A / Fold change vs veh, CUL4A / RFU, CCNY / Fold change vs veh, CCNY / RFU, UFL1 / Fold change vs veh, UFL1 / RFU, COG3 / Fold change vs veh, COG3 / RFU, DIAPH2 / Fold change vs veh, DIAPH2 / RFU, SKA2 / Fold change vs veh, SKA2 / RFU, AFF3 / Fold change vs veh, AFF3 / RFU, LMF1 / Fold change vs veh, LMF1 / RFU, IPO11 / Fold change vs veh, IPO11 / RFU, DFFB / Fold change vs veh, DFFB / RFU, FOXP1 / Fold change vs veh, FOXP1 / RFU, CARD8 / Fold change vs veh, CARD8 / RFU, STRN3 / Fold change vs veh, STRN3 / RFU, ADK / Fold change vs veh, ADK / RFU, RASSF2 / Fold change vs veh, RASSF2 / RFU, WIPF1 / Fold change vs veh, WIPF1 / RFU, LARP1B / Fold change vs veh, LARP1B / RFU, RASA1 / Fold change vs veh, RASA1 / RFU, RB1 / Fold change vs veh, RB1 / RFU, PPFIA1 / Fold change vs veh, PPFIA1 / RFU, MAT2A / Fold change vs veh, MAT2A / RFU, CCT5 / Fold change vs veh, CCT5 / RFU, WDR92 / Fold change vs veh, WDR92 / RFU, CUX1 / Fold change vs veh, CUX1 / RFU, TTC7A / Fold change vs veh, TTC7A / RFU, TMEM135 / Fold change vs veh, TMEM135 / RFU, DEPTOR / Fold change vs veh, DEPTOR / RFU, CPM / Fold change vs veh, CPM / RFU, DNAJB6 / Fold change vs veh, DNAJB6 / RFU, CACNA2D3 / Fold change vs veh, CACNA2D3 / RFU, DTX4 / Fold change vs veh, DTX4 / RFU, TFCP2 / Fold change vs veh, TFCP2 / RFU, GMCL1 /// GMCL1P1 / Fold change vs veh, GMCL1 /// GMCL1P1 / RFU, AEBP2 / Fold change vs veh, AEBP2 / RFU, SNHG1 /// SNORD22 /// SNORD25 /// SNORD26 /// SNORD27 /// SNORD28 /// SNORD29 /// SNORD31 / Fold change vs veh, SNHG1 /// SNORD22 /// SNORD25 /// SNORD26 /// SNORD27 /// SNORD28 /// SNORD29 /// SNORD31 / Fold change (Aza/veh), C12orf56 (ProbeSet 11735607_a_at) / Fold change (ACY-1035/veh), C12orf56 (ProbeSet 11735607_a_at) / Fold change (Aza/veh), FGFR1OP (ProbeSet 11751329_s_at) / Fold change (ACY-1035/veh), FGFR1OP (ProbeSet 11751329_s_at) / Fold change (Aza/veh), VPS36 (ProbeSet 11739960_a_at) / Fold change (ACY-1035/veh), VPS36 (ProbeSet 11739960_a_at) / RFU SYPL1 (11715823_x_at) / Fold change /veh SYPL1 (11715823_x_at) / RFU IGFBP7 (11715501_s_at) / Fold change /veh IGFBP7 (11715501_s_at) / RFU REEP3 (11722064_at) / Fold change /veh REEP3 (11722064_at) / RFU IGLL1 (11728026_x_at) / Fold change /veh IGLL1 (11728026_x_at): dose or concentration left out as unconfirmed
Settings: MV-4-11 cells, 48 hours

`Nc1ccc(-c2cccs2)cc1NC(=O)c1ccc2c(c1)cc(C1CC1)n2CCN1CCOCC1` [ACY-1035] was tested, and the “RFU CD79A (11719716_a_at)” value was 10.45 RFU.
